Reference: PubChem BioAssay (NCI)
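At the GI50, growth is halved. The concentration for full growth arrest is given as TGI.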

Columns and labels:
Test in all cases: NCI-60 cell line screen, 384-well format
[1] = tested on: RPMI-8226 leukemia
[2] = tested on: SW-620 colon
[3] = tested on: MALME-3M melanoma
[4] = tested on: NCI/ADR-RES ovarian
[5] = tested on: BT-549 breast
[6] = tested on: SN12C renal
[7] = tested on: SK-MEL-28 melanoma
[8] = tested on: MDA-MB-468 breast
[9] = tested on: HT29 colon
[10] = tested on: SR leukemia
[11] = tested on: CCRF-CEM leukemia
[12] = tested on: LOX IMVI melanoma
[13] = tested on: SK-OV-3 ovarian
[14] = tested on: OVCAR-4 ovarian
[15] = tested on: HCT-15 colon
[16] = tested on: UACC-62 melanoma
[17] = tested on: HOP-92 NSCLC
[18] = tested on: OVCAR-3 ovarian
[19] = tested on: HS 578T breast
[20] = tested on: MCF7 breast
[21] = tested on: SNB-75 CNS
[22] = tested on: SF-539 CNS
[23] = tested on: MDA-MB-435 melanoma
[24] = tested on: SK-MEL-5 melanoma
[25] = tested on: 786-0 renal
[26] = tested on: K-562 leukemia
[27] = tested on: CAKI-1 renal
[28] = tested on: SK-MEL-2 melanoma
[29] = tested on: RXF 393 renal
[30] = tested on: T-47D breast
[31] = tested on: HL-60(TB) leukemia
[32] = tested on: NCI-H522 lung
[33] = tested on: NCI-H23 lung
[34] = tested on: KM12 colon
[35] = tested on: OVCAR-8 ovarian
[36] = tested on: TK-10 renal
[37] = tested on: HOP-62 NSCLC
[38] = tested on: NCI-H322M lung
[39] = tested on: MOLT-4 leukemia
[40] = tested on: MDA-MB-231 breast
[41] = tested on: SF-295 CNS
[42] = tested on: NCI-H226 lung
[43] = tested on: HCC-2998 colon
[44] = tested on: A498 renal
[45] = tested on: ACHN renal
[46] = tested on: UO-31 renal
[47] = tested on: A549 NSCLC
[48] = tested on: HCT-116 colon
[49] = tested on: M14 melanoma
[50] = tested on: SF-268 CNS
[51] = tested on: DU-145 prostate
[52] = tested on: SNB-19 CNS
[53] = tested on: COLO 205 colon
[54] = tested on: IGROV1 ovarian
[55] = tested on: EKVX NSCLC
[56] = tested on: NCI-H460 NSCLC
[57] = tested on: UACC-257 melanoma
[58] = tested on: PC-3 prostate
[59] = tested on: OVCAR-5 ovarian
[60] = tested on: U251 glioblastoma

O=C(c1ccc(F)c(F)c1Nc1ccc(I)cc1F)N1CC(O)([C@@H]2CCCCN2)C1
GI50 [1]: 1.05 µM
TGI [1]: 5.22 µM
GI50 [2]: 0.0417 µM
TGI [2]: 5.83 µM
GI50 [3]: < 0.01 µM
GI50 [4]: 3.42 µM
TGI [4]: 16.1 µM
GI50 [5]: 1.4 µM
TGI [5]: 9.16 µM
GI50 [6]: 0.645 µM
TGI [6]: 16 µM
GI50 [7]: < 0.01 µM
TGI [7]: 0.0163 µM
GI50 [8]: 3.89 µM
TGI [8]: 9.32 µM
GI50 [9]: 0.0101 µM
TGI [9]: 4.24 µM
GI50 [10]: 1.07 µM
TGI [10]: 2.33 µM
GI50 [11]: 3.35 µM
TGI [11]: 7.67 µM
TGI [12]: 0.527 µM
GI50 [13]: 5.11 µM
TGI [13]: 18.6 µM
GI50 [14]: 2.7 µM
TGI [14]: 12.4 µM
GI50 [15]: 1.25 µM
TGI [15]: 9.73 µM
GI50 [16]: < 0.01 µM
TGI [16]: 0.161 µM
GI50 [17]: 0.153 µM
TGI [17]: 0.599 µM
GI50 [18]: 5.55 µM
TGI [18]: 17.2 µM
GI50 [19]: 4.74 µM
TGI [19]: 15.9 µM
GI50 [20]: 3.55 µM
TGI [20]: 7.29 µM
GI50 [21]: 1.39 µM
TGI [21]: 6.7 µM
GI50 [22]: 0.969 µM
TGI [22]: 7.01 µM
GI50 [23]: < 0.01 µM
TGI [23]: 15.8 µM
GI50 [24]: < 0.01 µM
TGI [24]: 0.0703 µM
GI50 [25]: 1.52 µM
TGI [25]: 5 µM
GI50 [26]: 0.284 µM
TGI [26]: 1.47 µM
GI50 [27]: 0.565 µM
TGI [27]: 10.4 µM
GI50 [28]: 0.0182 µM
TGI [28]: 0.0529 µM
GI50 [29]: 0.725 µM
TGI [29]: 2.58 µM
GI50 [30]: 4.79 µM
TGI [30]: 12.5 µM
GI50 [31]: 0.0101 µM
TGI [31]: 0.375 µM
GI50 [32]: 2.6 µM
TGI [32]: 17.3 µM
GI50 [33]: 0.0505 µM
TGI [33]: 0.708 µM
GI50 [34]: 0.136 µM
TGI [34]: 6.91 µM
GI50 [35]: 3.86 µM
TGI [35]: 10.5 µM
GI50 [36]: 0.956 µM
TGI [36]: 10.9 µM
GI50 [37]: 0.403 µM
TGI [37]: 13.5 µM
GI50 [38]: 0.217 µM
TGI [38]: 6.61 µM
GI50 [39]: 2.02 µM
TGI [39]: 4.83 µM
GI50 [40]: 0.172 µM
TGI [40]: 1.36 µM
GI50 [41]: 6.2 µM
TGI [41]: 12.2 µM
GI50 [42]: 0.23 µM
TGI [42]: 6.32 µM
GI50 [43]: 0.0102 µM
TGI [43]: 0.077 µM
GI50 [44]: 0.472 µM
TGI [44]: 2.95 µM
GI50 [45]: 1.49 µM
TGI [45]: 12.2 µM
GI50 [46]: 0.297 µM
TGI [46]: 3.77 µM
GI50 [47]: 0.0975 µM
TGI [47]: 2.73 µM
GI50 [48]: 0.0703 µM
TGI [48]: 0.834 µM
GI50 [49]: < 0.01 µM
TGI [49]: 0.0146 µM
GI50 [50]: 8.35 µM
TGI [50]: 20.5 µM
GI50 [51]: 1.25 µM
TGI [51]: 15.5 µM
GI50 [52]: 5.49 µM
TGI [52]: 18.5 µM
GI50 [53]: < 0.01 µM
TGI [53]: 0.0274 µM
GI50 [54]: 0.12 µM
TGI [54]: 4.51 µM
GI50 [55]: 1.34 µM
TGI [55]: 14.2 µM
GI50 [56]: 1.27 µM
TGI [56]: 5.74 µM
GI50 [57]: < 0.01 µM
TGI [57]: 0.0268 µM
GI50 [58]: 7.65 µM
TGI [58]: 19.8 µM
GI50 [59]: 0.126 µM
TGI [59]: 7.96 µM
GI50 [60]: 0.82 µM
TGI [60]: 8.28 µM
